Assays:
Assay in all cases: relative viability (nuclei count vs DMSO), 5 days (fraction); higher = more cells survive
Doxorubicin + Foretinib = compound: COc1cccc2c1C(=O)c1c(O)c3c(c(O)c1C2=O)C[C@@](O)(C(=O)CO)C[C@@H]3O[C@H]1C[C@H](N)[C@H](O)[C@H](C)O1 [Doxorubicin] + COc1cc2c(Oc3ccc(NC(=O)C4(C(=O)Nc5ccc(F)cc5)CC4)cc3F)ccnc2cc1OCCCN1CCOCC1 [Foretinib] (partner 0.25 µM)
Outline: (§1)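 One day after seeding in 1536-well plates, lung cancer cell lines were dosed by pin tool. Dosing was either single-drug or a fixed anchor-drug dose plus five library-drug doses (not always all listed) in √10 steps. After 5 days, nuclei were stained in one fix-and-stain step and counted on 4× images, and relative viability is the nuclei count of treated wells over that of vehicle wells, given as the median of duplicate plates.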

Doxorubicin + Phenformin = compound: COc1cccc2c1C(=O)c1c(O)c3c(c(O)c1C2=O)C[C@@](O)(C(=O)CO)C[C@@H]3O[C@H]1C[C@H](N)[C@H](O)[C@H](C)O1 [Doxorubicin] + N=C(N)NC(=N)NCCc1ccccc1 [Phenformin] (partner 250 µM)
Outline: as §1

BAY61-3606 + Dasatinib = compound: COC1=C(C=C(C=C1)C2=CC3=NC=CN3C(=N2)NC4=C(C=CC=N4)C(=O)N)OC [BAY61-3606] + Cc1nc(Nc2ncc(C(=O)Nc3c(C)cccc3Cl)s2)cc(N2CCN(CCO)CC2)n1 [Dasatinib] (partner 0.075 µM)
Outline: as §1

BAY61-3606 + Alpelisib = compound: COC1=C(C=C(C=C1)C2=CC3=NC=CN3C(=N2)NC4=C(C=CC=N4)C(=O)N)OC [BAY61-3606] + Cc1nc(NC(=O)N2CCC[C@H]2C(N)=O)sc1-c1ccnc(C(C)(C)C(F)(F)F)c1 [Alpelisib] (partner 2 µM)
Outline: as §1

Cell Line | relative viability (Doxorubicin + Foretinib; first compound 0.001 µM) | relative viability (Doxorubicin + Foretinib; first compound 0.003162 µM) | relative viability (Doxorubicin + Foretinib; first compound 0.01 µM) | relative viability (Doxorubicin + Foretinib; first compound 0.03162 µM) | relative viability (Doxorubicin + Foretinib; first compound 0.1 µM) | relative viability (Doxorubicin + Phenformin; first compound 0.001 µM) | relative viability (Doxorubicin + Phenformin; first compound 0.003162 µM) | relative viability (Doxorubicin + Phenformin; first compound 0.01 µM) | relative viability (Doxorubicin + Phenformin; first compound 0.03162 µM) | relative viability (Doxorubicin + Phenformin; first compound 0.1 µM) | relative viability (BAY61-3606 + Dasatinib; first compound 0.02 µM) | relative viability (BAY61-3606 + Dasatinib; first compound 0.06325 µM) | relative viability (BAY61-3606 + Dasatinib; first compound 0.2 µM) | relative viability (BAY61-3606 + Dasatinib; first compound 0.6325 µM) | relative viability (BAY61-3606 + Dasatinib; first compound 2 µM) | relative viability (BAY61-3606 + Alpelisib; first compound 0.02 µM) | relative viability (BAY61-3606 + Alpelisib; first compound 0.06325 µM) | relative viability (BAY61-3606 + Alpelisib; first compound 0.2 µM) | relative viability (BAY61-3606 + Alpelisib; first compound 0.6325 µM) | relative viability (BAY61-3606 + Alpelisib; first compound 2 µM)
LU99A | 0.832 | 0.915 | 0.769 | 0.721 | 0.802 | 0.698 | 1.06 | 0.767 | 0.721 | 0.669 | 0.561 | 0.509 | 0.505 | 0.51 | 0.303 | 0.508 | 0.521 | 0.508 | 0.492 | 0.251
LXF-289 | 0.958 | 0.975 | 0.97 | 1.09 | 0.98 | 0.432 | 0.545 | 0.498 | 0.504 | 0.495 | 0.261 | 0.205 | 0.187 | 0.187 | 0.129 | 0.991 | 1.09 | 1.03 | 1.14 | 1.05
NCI-H23 | – | 0.863 | 1.03 | 0.855 | 0.981 | – | 0.84 | 0.806 | 0.58 | 0.486 | 0.801 | 0.713 | 0.645 | 0.606 | 0.677 | 0.776 | 0.594 | 0.653 | 0.829 | 0.41
NCI-H322M | 0.92 | 0.898 | 0.905 | 0.717 | 0.562 | 0.815 | 0.731 | 0.755 | 0.429 | 0.385 | 0.247 | 0.232 | 0.256 | 0.233 | 0.224 | 0.9 | 0.792 | 0.852 | 0.898 | 0.841
NCI-H358 | 0.743 | 0.737 | 0.341 | 0.151 | 0.122 | 0.299 | 0.307 | 0.176 | 0.0992 | 0.0721 | 0.17 | 0.158 | 0.149 | 0.179 | 0.138 | 0.996 | 0.753 | 0.732 | 0.643 | 0.228
NCI-H441 | – | 1.04 | 0.897 | 0.48 | 0.368 | – | 0.682 | 0.438 | 0.218 | 0.245 | 0.614 | 0.655 | 0.54 | 0.521 | 0.438 | 0.734 | 0.796 | 0.809 | 0.848 | 0.439
NCI-H460 | 0.965 | 1.09 | 0.843 | 0.105 | 0.0481 | 0.435 | 0.449 | 0.179 | 0.0505 | 0.0155 | 0.574 | 0.493 | 0.533 | 0.421 | 0.284 | 0.58 | 0.442 | 0.482 | 0.398 | 0.174
NCI-H520 | 0.831 | 0.729 | 0.619 | 0.673 | 0.548 | 0.626 | 0.531 | 0.611 | 0.465 | 0.347 | 0.191 | 0.193 | 0.216 | 0.184 | 0.151 | 1.07 | 0.801 | 1.11 | 1.04 | 1.02
NCI-H596 | 0.981 | 1.04 | 0.976 | 0.619 | 0.964 | 0.696 | 0.882 | 0.742 | 0.558 | 0.755 | 0.644 | 0.481 | 0.618 | 0.594 | 0.489 | 0.428 | 0.482 | 0.108 | 0.479 | 0.407
NCI-H647 | 1.2 | 1.38 | 1.14 | 0.882 | 0.545 | 0.539 | 0.494 | 0.432 | 0.231 | 0.103 | 0.193 | 0.158 | 0.189 | 0.164 | 0.0812 | 1.02 | 1.36 | 0.922 | 1.03 | 0.534
NCI-H650 | 0.93 | 0.965 | 1.08 | 0.834 | 0.954 | 0.543 | 0.419 | 0.509 | 0.424 | 0.373 | 0.52 | 0.378 | 0.363 | 0.428 | 0.361 | 1.27 | 1.12 | 1 | 1.1 | 0.871
NCI-H661 | 1.01 | 1 | 0.954 | 0.826 | 0.542 | 0.27 | 0.284 | 0.265 | 0.244 | 0.238 | 0.985 | 0.835 | 0.861 | 0.886 | 0.702 | 0.754 | 0.571 | 0.694 | 0.57 | 0.689
NCI-H727 | 0.894 | 1.22 | 1.03 | 0.725 | 1.05 | 0.499 | 0.472 | 0.696 | 0.539 | 0.404 | 0.364 | 0.438 | 0.339 | 0.333 | 0.386 | 0.611 | 0.615 | 0.609 | 0.721 | 0.488
NCI-H838 | 1.1 | 1.07 | 1.06 | 0.85 | 0.438 | 0.502 | 0.607 | 0.556 | 0.346 | 0.19 | 0.284 | 0.299 | 0.291 | 0.251 | 0.237 | 0.988 | 0.963 | 0.982 | 1.02 | 0.888
NCI-H1355 | 0.97 | 1.01 | 0.884 | 0.91 | 0.897 | 0.423 | 0.488 | 0.465 | 0.449 | 0.416 | 0.68 | 0.627 | 0.65 | 0.662 | 0.67 | 0.944 | 0.811 | 0.791 | 0.713 | 0.534
NCI-H1395 | 0.949 | 1.05 | 0.953 | 0.892 | 0.92 | 0.43 | 0.44 | 0.447 | 0.414 | 0.449 | 0.385 | 0.404 | 0.387 | 0.383 | 0.399 | 1.16 | 0.957 | 1.07 | 1.04 | 0.97
